Data: patent US6642258B1, “Use of central cannabinoid receptor antagonist for preparing medicines” (Sanofi-Synthelabo, priority 1999, dated 2003)

Assays:
[1] = system: experimental allergic encephalitis (EAE) in Lewis rats; assay: Experimental allergic encephalitis (EAE) induced in Lewis rats by intraplantar MBP (fragment 68-84) in FCA; format: in vivo; conditions: administered orally or intraperitoneally from day zero of induction
[2] = system: experimental allergic encephalitis (EAE) in SjL/j mice; assay: Experimental allergic encephalitis (EAE) induced in SjL/j mice by subcutaneous PLP (fragment 139-151) in FCA plus Bordetella pertussis; format: in vivo; conditions: administered orally or intraperitoneally from day zero of induction

SMILES: Cc1c(C(=O)NN2CCCCC2)nn(-c2ccc(Cl)cc2Cl)c1-c1ccc(Cl)cc1 [compound A, N-Piperidino-5-(4-chlorophenyl)-1-(2,4-dichlorophenyl)-4-methylpyrazole-3-carboxamide]
- severity of the condition (paralysis of the hind quarters) [1]: statistically smaller
- weight loss of the animals ([1]; compared with vehicle alone): significantly smaller
- severity of the condition (paralysis of the hind quarters) [2]: statistically smaller
- weight loss of the animals ([2]; compared with vehicle alone): significantly smaller
